The structures appear in SMILES notation. A value given as a limit tells only on which side of the number the result lay.

The target of the assay is T1, hGLP-1R (Homo sapiens, UniProt P43220).
T1 construct: expressed in transfected cells; host or cells: CHO-K1 (hGLP-1R and CRE-luciferase reporter)
T1 sequence (P43220 24-463): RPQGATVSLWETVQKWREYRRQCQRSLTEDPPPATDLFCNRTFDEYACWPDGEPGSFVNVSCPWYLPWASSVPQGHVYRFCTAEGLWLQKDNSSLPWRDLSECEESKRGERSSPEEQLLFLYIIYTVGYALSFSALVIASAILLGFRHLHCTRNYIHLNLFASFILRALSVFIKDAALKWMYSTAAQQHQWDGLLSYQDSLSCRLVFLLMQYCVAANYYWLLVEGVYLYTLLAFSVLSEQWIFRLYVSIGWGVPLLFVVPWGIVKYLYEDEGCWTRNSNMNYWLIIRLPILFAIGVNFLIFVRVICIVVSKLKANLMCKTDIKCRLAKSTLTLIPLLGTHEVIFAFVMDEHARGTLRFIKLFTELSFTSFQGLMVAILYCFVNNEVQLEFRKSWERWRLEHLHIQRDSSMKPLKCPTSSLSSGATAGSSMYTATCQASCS
As to the kind of experiment: GLP-1R agonist activity measurement (cell-based luciferase assay). The settings on record: CHO-K1/hGLP-1R/CRE-luciferase cell line, 4 h treatment, Bright-Glo luminescence. As to the method: Experimental Example 1: GLP-1R Agonist Activity Measurement (Cell-Based Luciferase Assay)
The CHO-K1/hGLP-1R/CRE-luciferase cell line was seeded at 15000 cells in a 96-well plate. As a medium, Ham's F-12 Nutrient medium was used. After culturing for 18 hours in a 5% CO2 incubator maintained at 37° C., the drug was treated. Each drug plated at 9 concentrations was dissolved in DMEM/F-12+1% FBS medium and treated with 100 ul of each cell line. After culturing for 4 h, 30 ul of assay reagent was added to each well using the Bright-Glo™ luciferase assay system kit. After the plate was stored at room temperature for 15 min, luminescence was measured with a SpectraMax M5 instrument.
`O=C(O)c1ccc2nc(Cc3ccc(-c4cccnc4OCc4ccc(Cl)cc4F)cc3)n(C[C@@H]3CCO3)c2c1` [Example 1, (S)-2-(4-(2-((4-chloro-2-fluorobenzyl)oxy)pyridin-3-yl)benzyl)-1-(oxetan-2-ylmethyl)-1H-benzo[d]imidazol-6-carboxylic acid] registered an EC50 of 0.316 nM.

`CC1(c2ccc(Cl)cc2F)Oc2cccc(-c3ccc(Cc4nc5ccc(C(=O)O)cc5n4C[C@@H]4CCO4)cc3)c2O1` (stereo partly drawn) [Example 2, 2-(4-(2-(4-chloro-2-fluorophenyl)-2-methylbenzo[d][1,3]dioxol-4-yl)benzyl)-1-(((S)-oxetan-2-yl)methyl)-1H-benzo[d]imidazol-6-carboxylic acid] registered an EC50 of 0.108 nM.

Turning to `CC1(c2ccc(Cl)cc2F)Oc2cccc(-c3ccc(Cc4nc5ccc(C(=O)O)cc5n4C[C@@H]4CCO4)cc3F)c2O1` (stereo partly drawn) [Example 3, 2-(4-(2-(4-chloro-2-fluorophenyl)-2-methylbenzo[d][1,3]dioxol-4-yl)-3-fluorobenzyl)-1-(((S)-oxetan-2-yl)methyl)-1H-benzo[d]imidazol-6-carboxylic acid], the midpoint of the response, the EC50, lay at 0.041 nM.

`CC1(c2ccc(Cl)cc2F)Oc2cccc(-c3ccc(Cc4nc5ccc(C(=O)O)cc5n4Cc4cnco4)cc3)c2O1` (stereo not shown) [Example 4, 2-(4-(2-(4-chloro-2-fluorophenyl)-2-methylbenzo[d][1,3]dioxol-4-yl)benzyl)-1-(oxazol-5-ylmethyl)-1H-benzo[d]imidazol-6-carboxylic acid] showed an EC50 of 0.278 nM.

`CC1(c2ccc(Cl)cc2F)Oc2cccc(-c3ccc(Cc4nc5ccc(C(=O)O)cc5n4Cc4cnco4)cc3F)c2O1` (stereo not shown) [Example 5, 2-(4-(2-(4-chloro-2-fluorophenyl)-2-methylbenzo[d][1,3]dioxol-4-yl)-3-fluorobenzyl)-1-(oxazol-5-ylmethyl)-1H-benzo[d]imidazol-6-carboxylic acid]: the EC50 was determined as 0.16 nM.

`O=C(O)c1ccc2nc(Cc3ccc(-c4cccnc4OCc4ccc(Cl)cc4F)cc3)n(Cc3cnco3)c2c1` [Example 6, 2-(4-(2-((4-chloro-2-fluorobenzyl)oxy)pyridin-3-yl)benzyl)-1-(oxazol-5-ylmethyl)-1H-benzo[d]imidazol-6-carboxylic acid]: the EC50 was determined as 3.5 nM.

In turn, `CCCn1cnnc1Cn1c(Cc2ccc(-c3cccnc3OCc3ccc(Cl)cc3F)cc2)nc2ccc(C(=O)O)cc21` [Example 7, 2-(4-(2-((4-chloro-2-fluorobenzyl)oxy)pyridin-3-yl)benzyl)-1-((4-propyl-4H-1,2,4-triazol-3-yl)methyl)-1H-benzo[d]imidazol-6-carboxylic acid] gave an EC50 of more than 80 nM.

In turn, `CCCn1cnnc1Cn1c(Cc2ccc(-c3cccc4c3OC(C)(c3ccc(Cl)cc3F)O4)cc2)nc2ccc(C(=O)O)cc21` (stereo not shown) [Example 8, 2-(4-(2-(4-chloro-2-fluorophenyl)-2-methylbenzo[d][1,3]dioxol-4-yl)benzyl)-1-((4-propyl-4H-1,2,4-triazol-3-yl)methyl)-1H-benzo[d]imidazol-6-carboxylic acid] gave an EC50 of 0.914 nM.

`CCCn1cnnc1Cn1c(Cc2ccc(-c3cccc4c3OC(C)(c3ccc(Cl)cc3F)O4)c(F)c2)nc2ccc(C(=O)O)cc21` (stereo not shown) [Example 9, 2-(4-(2-(4-chloro-2-fluorophenyl)-2-methylbenzo[d][1,3]dioxol-4-yl)-3-fluorobenzyl)-1-((4-propyl-4H-1,2,4-triazol-3-yl)methyl)-1H-benzo[d]imidazol-6-carboxylic acid] came in with an EC50 of 0.772 nM.

As to `CCn1cncc1Cn1c(Cc2ccc(-c3cccc4c3OC(C)(c3ccc(Cl)cc3F)O4)cc2)nc2ccc(C(=O)O)cc21` (stereo not shown) [Example 10, 2-(4-(2-(4-chloro-2-fluorophenyl)-2-methylbenzo[d][1,3]dioxol-4-yl)benzyl)-1-((1-ethyl-1H-imidazol-5-yl)methyl)-1H-benzo[d]imidazol-6-carboxylic acid], the response was half-maximal at 0.0216 nM (EC50).

In the case of `CCn1cncc1Cn1c(Cc2ccc(-c3cccc4c3OC(C)(c3ccc(Cl)cc3F)O4)c(F)c2)nc2ccc(C(=O)O)cc21` (stereo not shown) [Example 11, 2-(4-(2-(4-chloro-2-fluorophenyl)-2-methylbenzo[d][1,3]dioxol-4-yl)-3-fluorobenzyl)-1-((1-ethyl-1H-imidazol-5-yl)methyl)-1H-benzo[d]imidazol-6-carboxylic acid], a half-maximal response (EC50) required 0.0256 nM.

For the molecule `CC1(c2ccc(Cl)cc2F)Oc2cccc(-c3ccc(Cc4nc5ccc(C(=O)O)cc5n4C[C@@H]4CCCO4)cc3)c2O1` (stereo partly drawn) [Example 12, 2-(4-(2-(4-chloro-2-fluorophenyl)-2-methylbenzo[d][1,3]dioxol-4-yl)benzyl)-1-(((S)-tetrahydrofuran-2-yl)methyl)-1H-benzo[d]imidazol-6-carboxylic acid], the EC50 turned out to be 0.223 nM.

The molecule `O=C(O)c1ccc2nc(Cc3ccc(-c4cccc(OCC56CCC(CC5)CC6)n4)cc3)n(C[C@@H]3CCO3)c2c1` [Example 13, (S)-2-(4-(6-(bicyclo[2.2.2]octan-1-ylmethoxy)pyridin-2-yl)benzyl)-1-(oxetan-2-ylmethyl)-1H-benzo[d]imidazol-6-carboxylic acid] came in with an EC50 of more than 80 nM.

The values above are taken from US20240300928A1, “GLP-1 RECEPTOR AGONIST, PHARMACEUTICAL COMPOSITION COMPRISING SAME, AND METHOD FOR PREPARING SAME” (LG CHEM, LTD., priority 2021, published 2024).
